Measured values published in patent US20220378706A1, “PHARMACEUTICAL COMPOSITION COMPRISING PDE9 INHIBITOR” (Eisai R&D Management Co., Ltd., priority 2017, published 2022).

System: CSF cGMP
Assay: Single dose clinical study Part B: CSF cGMP pharmacodynamics
Assay type: in vivo, human
Details: for CSF cGMP Amax Mean (SD) / CSF cGMP TAmax Median / CSF cGMP ΔAUAC(0-30 h) Mean (SD): healthy adults Part B, fasted
Description: After the Screening Period, subjects returned to the clinic on […] for Baseline procedures. […] Serial CSF sampling via the lumbar catheter commenced on Day 1, after an overnight fast. CSF samples were collected on Day 1 over a period of 3 hours predose. Subjects were then administered study drug, and serial CSF sampling for 30 hours postdose was performed to determine CSF cGMP and CSF Compound A concentrations. Blood samples for plasma Compound A PK were collected at the same time points as CSF sampling. Safety evaluations were also performed.
Serial CSF samples were collected from the lumbar catheter for analysis of concentrations of cyclic […] monophosphate (cGMP) at −3, −2, −1 hours, predose (0 hour), and postdose at 1, 2, 3, 4, 5, 6, 8, 10, 12, 14, 16, 18, 24, and 30 hours.
Plasma, urine and CSF concentrations of Compound A were measured using validated liquid chromatography mass spectrometry/mass spectrometry (LC MS/MS) assay methods. CSF concentrations of cGMP were measured using a validated LC-MS/MS assay method.
The primary PD measure was CSF cGMP. The following PD parameters were reported for CSF cGMP:
Plasma Compound A concentrations pooled from all cohorts of the study were subjected to population PK analysis using nonlinear mixed effects modelling. The effect of covariates, such as baseline demographics/characteristics (eg, body weight, age, gender, ethnicity, etc) on the PK of Compound A were explored. The individual posterior estimates of PK parameters were then used to generate individual PK profiles of Compound A, which were used in subsequent PK/PD analysis of the percent change from baseline in CSF cGMP concentrations.

COc1ncc(C)c(-c2ccc3c(c2)[nH]c(=O)c2cnn([C@H]4CCOC4)c23)c1C [Compound A, (S)-7-(2-methoxy-3,5-dimethylpyridin-4-yl)-1-(tetrahydrofuran-3-yl)-1H-pyrazolo[4,3-c]quin olin-4(5H)-one]
sustained CSF cGMP increase from baseline predicted from PK/PD modeling (100 mg administered to steady state): approximately 200% | CSF cGMP Amax Mean (SD) (single oral 50 mg): 367 (92.6) % | CSF cGMP TAmax Median (single oral 50 mg): 7.87 h | CSF cGMP ΔAUAC(0-30 h) Mean (SD) (single oral 50 mg): 117 (51.7) % | CSF cGMP Amax Mean (SD) (single oral 75 mg): 461 (86.3) % | CSF cGMP TAmax Median (single oral 75 mg): 5.87 h | CSF cGMP ΔAUAC(0-30 h) Mean (SD) (single oral 75 mg): 166 (9.61) % | CSF cGMP Amax Mean (SD) (single oral 100 mg): 293 (67.8) % | CSF cGMP TAmax Median (single oral 100 mg): 5.87 h | CSF cGMP ΔAUAC(0-30 h) Mean (SD) (single oral 100 mg): 87.0 (33.9) % | CSF cGMP Amax Mean (SD) (single oral 200 mg): 424 (127) % | CSF cGMP TAmax Median (single oral 200 mg): 5.37 h | CSF cGMP ΔAUAC(0-30 h) Mean (SD) (single oral 200 mg): 176 (89.5) % | CSF cGMP Amax Mean (SD) (single oral 400 mg): 420 (123) % | CSF cGMP TAmax Median (single oral 400 mg): 12.9 h | CSF cGMP ΔAUAC(0-30 h) Mean (SD) (single oral 400 mg): 214 (82.3) %
